In assay [1] the target is T1, PiAA7A (Phytophthora infestans, UniProt D0MXI7).
T1 construct: gene PITG_02928
Particulars: co-substrate O2; 25 mM MES pH 6, 20 °C, 1 nM enzyme; sigmoidal (allosteric) model.

Assay [2] deals with T2, PiAA7D (Phytophthora infestans, UniProt D0N574).
T2 construct: gene PITG_06591
As to conditions: co-substrate O2; 25 mM MES pH 6, 20 °C, 1 nM enzyme; sigmoidal (allosteric) model.

The results in this text go back to article PMC12537922 (Nature Communications, 2025).

T1 sequence (D0MXI7 27-509 limits assumed): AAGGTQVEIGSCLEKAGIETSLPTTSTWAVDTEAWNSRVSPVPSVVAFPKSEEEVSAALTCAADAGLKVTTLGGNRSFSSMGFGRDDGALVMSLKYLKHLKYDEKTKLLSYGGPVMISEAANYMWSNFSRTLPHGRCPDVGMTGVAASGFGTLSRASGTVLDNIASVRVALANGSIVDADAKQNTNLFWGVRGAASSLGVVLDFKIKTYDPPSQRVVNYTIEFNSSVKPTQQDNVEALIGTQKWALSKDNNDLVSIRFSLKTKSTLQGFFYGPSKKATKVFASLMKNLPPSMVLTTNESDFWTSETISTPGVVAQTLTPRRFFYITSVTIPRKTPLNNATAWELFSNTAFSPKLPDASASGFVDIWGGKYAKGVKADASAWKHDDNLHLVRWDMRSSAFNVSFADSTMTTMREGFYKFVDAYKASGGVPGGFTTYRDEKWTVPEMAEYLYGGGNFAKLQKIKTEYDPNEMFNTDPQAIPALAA
T2 sequence (D0N574 27-508 limits assumed): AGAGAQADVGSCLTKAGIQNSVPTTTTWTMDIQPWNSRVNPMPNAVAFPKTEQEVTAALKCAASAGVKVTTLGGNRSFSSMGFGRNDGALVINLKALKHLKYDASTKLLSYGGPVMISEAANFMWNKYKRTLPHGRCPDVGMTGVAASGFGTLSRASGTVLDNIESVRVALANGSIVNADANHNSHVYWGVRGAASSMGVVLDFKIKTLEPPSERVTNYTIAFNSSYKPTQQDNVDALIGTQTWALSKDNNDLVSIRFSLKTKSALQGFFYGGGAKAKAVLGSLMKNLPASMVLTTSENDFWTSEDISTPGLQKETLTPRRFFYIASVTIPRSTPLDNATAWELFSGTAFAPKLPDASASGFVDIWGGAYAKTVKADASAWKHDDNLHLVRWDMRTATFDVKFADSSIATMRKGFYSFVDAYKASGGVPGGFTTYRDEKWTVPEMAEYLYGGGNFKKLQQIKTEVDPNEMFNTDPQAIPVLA

In the case of `O=C(O)[C@H]1O[C@H](O[C@@H]2[C@H](O)[C@@H](O)[C@@H](O[C@@H]3[C@H](O)[C@@H](O)C(O)O[C@@H]3C(=O)O)O[C@@H]2C(=O)O)[C@H](O)[C@@H](O)[C@H]1O` (some centres unmarked) [OG3], the KM result in assay [1] is “a sigmoidal (allosteric) model was found to be more appropriate for PiAA7A with OG3”. Regarding `O=C(O)[C@H]1O[C@H](O[C@@H]2[C@H](O)[C@@H](O)[C@@H](O[C@@H]3[C@H](O)[C@@H](O)[C@@H](O[C@@H]4[C@H](O)[C@@H](O)C(O)O[C@@H]4C(=O)O)O[C@@H]3C(=O)O)O[C@@H]2C(=O)O)[C@H](O)[C@@H](O)[C@H]1O` (some centres unmarked) [OG4], the KM result in assay [2] was “PiAA7D with OG4”.
